Molecular target: T1, EDAR (endogenous, SUNE1 cells) (Homo sapiens, UniProt Q9UNE0)
T1 construct: endogenous protein in SUNE1 cells, detected by Western blot
T1 sequence (Q9UNE0 27-448): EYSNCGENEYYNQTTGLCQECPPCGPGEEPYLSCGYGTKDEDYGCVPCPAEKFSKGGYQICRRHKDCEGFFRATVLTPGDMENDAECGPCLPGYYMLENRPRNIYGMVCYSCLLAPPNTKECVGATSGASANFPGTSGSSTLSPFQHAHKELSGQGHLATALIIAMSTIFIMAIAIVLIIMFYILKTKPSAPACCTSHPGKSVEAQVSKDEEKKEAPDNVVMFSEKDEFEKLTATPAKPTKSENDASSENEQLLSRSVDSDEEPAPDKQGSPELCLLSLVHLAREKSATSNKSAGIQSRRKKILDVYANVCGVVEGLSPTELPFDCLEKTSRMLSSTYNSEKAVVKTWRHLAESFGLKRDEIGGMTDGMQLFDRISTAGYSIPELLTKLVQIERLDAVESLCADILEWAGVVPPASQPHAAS
Test: CETSA (Western blot)
Assay type: cell-based
Details: 10 µM vinburnine, intact SUNE1 cells, 12 h; six temperatures, 10 min

CC[C@]12CCCN3CCc4c(n(c5ccccc45)C(=O)C1)[C@@H]32 [vinburnine]
CETSA (Western blot): EDAR was more stable in vinburnine‐pretreated samples than in control samples at various temperatures

From PMC12697895, “Vinburnine Sensitizes Radiotherapy Efficacy in Nasopharyngeal Carcinoma by Triggering Pyroptosis and Immune Responses via Activation of EDAR‐NFκB Pathway” (Advanced Science, 2025)
